Results reported in US10258602B2 (Ocera Therapeutics, Inc., priority 2007, dated 2019).

Each molecule was assayed against human growth hormone secretagogue receptor (hGHS-R1a) (Homo sapiens, UniProt Q92847) (assay: Competitive radioligand binding assay (ghrelin receptor), standard method A). Details: not given.
From the text: A competitive binding assay at the human growth hormone secretagogue receptor (hGHS-R1a) can be carried out analogously to assays described in the literature. (Bednarek, M. A.; et al. J. Med. Chem. 2000, 43, 4370-4376; Palucki, B. L.; et al. Bioorg. Med. Chem. Lett. […], 11, 1955-1957.) See also U.S. patent application Ser. Nos. 11/149,512 and 11/149,731. Binding activity at the gherlin receptor for representative compounds of the present invention is shown in the Examples below.

human growth hormone secretagogue receptor (hGHS-R1a), sequence (Q92847 whole entry): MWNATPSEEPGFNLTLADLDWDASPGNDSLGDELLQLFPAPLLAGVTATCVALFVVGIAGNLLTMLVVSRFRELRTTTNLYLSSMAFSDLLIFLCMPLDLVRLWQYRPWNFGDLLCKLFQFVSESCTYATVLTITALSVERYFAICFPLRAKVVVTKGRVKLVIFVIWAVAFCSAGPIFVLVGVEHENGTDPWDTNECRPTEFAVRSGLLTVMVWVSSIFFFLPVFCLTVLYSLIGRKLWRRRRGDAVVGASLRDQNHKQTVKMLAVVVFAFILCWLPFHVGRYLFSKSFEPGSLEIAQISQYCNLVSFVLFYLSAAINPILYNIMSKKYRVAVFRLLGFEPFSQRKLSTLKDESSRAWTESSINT

Ki	SMILES
≤ 100 nM	CCC(C)[C@@H]1NCC(C)(C)Oc2ccccc2CCCNC(=O)[C@@H](Cc2ccccc2)NC(=O)[C@@H](C)N(C)C1=O (stereo partly shown) [Compound 923]

Same assay, conditions: binding activity at the human ghrelin receptor, standard method A

Ki	SMILES
≤ 500 nM	COC(=O)C[C@H]1NC(=O)[C@@H](C)N(C)C(=O)[C@H](C2CC2)NC[C@@H](C)Oc2ccccc2CCCNC1=O [Compound 1090]
≤ 10 nM	CC1C(=O)NC(Cc2ccc(F)cc2)C(=O)NCCCc2c(F)cccc2OCCNC(C2CC2)C(=O)N1C (stereo not shown) [Compound 1109]
≤ 100 nM	CC(C)CC1NC(=O)C(C)N(C)C(=O)C(C2CC2)NCCOC2CCCCC2CCCNC1=O (stereo not shown) [Compound 1106]
≤ 100 nM	C[C@@H]1C(=O)N[C@H]([C@@H](C)c2ccc(O)cc2)C(=O)NCCCc2ncccc2OCCN[C@@H](C2CC2)C(=O)N1C [Compound 1080]
≤ 10 nM	C[C@@H]1CCc2ccccc2O[C@H](C)CN[C@@H](C2CC2)C(=O)N(C)[C@H](C)C(=O)N[C@H](Cc2ccc(F)cc2)C(=O)N1 [Compound 1010]
≤ 100 nM	C[C@@H]1CN[C@@H](C2CC2)C(=O)N(C)[C@H](C)C(=O)N[C@H](C(C)(C)c2ccc(F)cc2)C(=O)NCCCc2ccccc2O1 [Compound 1035]
≤ 100 nM	C[C@@H]1C(=O)N[C@H](Cc2cccc(Cl)c2)C(=O)NCCCc2ccccc2OCCN[C@@H](C2CC2)C(=O)N1C [Compound 873]
> 500 nM	C[C@@H]1CN[C@@H](C2CC2)C(=O)N(C)[C@H](C)C(=O)N[C@H](c2ccc(O)cc2)C(=O)NCCCc2ccccc2O1 [Compound 1103]
≤ 100 nM	CC(C)C[C@H]1NC(=O)[C@@H](C)N(C)C(=O)[C@H](C2CC2)NCCOc2ccccc2CC[C@H](C)NC1=O [Compound 1084]
≤ 100 nM	C[C@@H]1C(=O)N[C@H](Cc2ccc(F)cc2)C(=O)NCCCc2ccccc2OC(C)(C)CN[C@@H](C2CC2)C(=O)N1C [Compound 1003]
≤ 100 nM	CC(C)CC1NC(=O)C(C)N(C)C(=O)C(C2CC2)NCC(C)OC2CCCCC2CCC(C)NC1=O (stereo not shown) [Compound 1107]
≤ 100 nM	C[C@@H]1CN[C@@H](C2CC2)C(=O)N(C)[C@H](C)C(=O)N[C@H](Cc2ccc(Cl)cc2Cl)C(=O)NCCCc2ccccc2O1 [Compound 1039]
≤ 100 nM	CC(C)C[C@H]1NC(=O)[C@@H](C)N(C)C(=O)[C@H](C2CC2)NCCOc2ccccc2CC[C@@H](C)NC1=O [Compound 1086]
> 500 nM	CC(C)C[C@H]1NC(=O)[C@@H](C)N(C)C(=O)[C@H](C2CC2)NCCOc2cccnc2CCCNC1=O [Compound 986]
> 500 nM	C[C@@H]1CN[C@@H](C2CC2)C(=O)N(C)[C@H](C)C(=O)N[C@H]([C@H](C)O)C(=O)NCCCc2ccccc2O1 [Compound 1050]
≤ 100 nM	C[C@@H]1CN[C@@H](C2CC2)C(=O)N(C)[C@H](C)C(=O)N[C@H](Cc2ccc(F)cc2)C(=O)NCCCc2cccc(Cl)c2O1 [Compound 1007]
≤ 10 nM	C[C@@H]1C(=O)N[C@H](Cc2ccc(F)cc2)C(=O)NCCCc2cccc3c2OC(CC3)CN[C@@H](C2CC2)C(=O)N1C (stereo partly shown) [Compound 946]
≤ 1 nM	CC(C)CC1NC(=O)C(C)N(C)C(=O)C(C2CCCCC2)NCCOc2cc(F)ccc2CCCNC1=O (stereo not shown) [Compound 1112]
≤ 500 nM	CC(C)[C@@H]1CN[C@@H](C2CC2)C(=O)N(C)[C@H](C)C(=O)N[C@H](Cc2ccccc2)C(=O)NCCCc2ccc(F)cc2O1 [Compound 965]
≤ 100 nM	C[C@@H]1CN[C@@H](C2CC2)C(=O)N(C)[C@H](C)C(=O)N[C@H]([C@@H](C)c2ccc(O)cc2)C(=O)NCCCc2ccccc2O1 [Compound 1068]
≤ 500 nM	CCC[C@@H]1NC[C@@H](C)Oc2ccccc2CCCNC(=O)[C@@H](Cc2ccccc2)NC(=O)[C@@H](C)N(C)C1=O [Compound 858]
≤ 1 nM	CC(C)C[C@H]1NC(=O)[C@@H](C)N(C)C(=O)[C@H](C2CCCCC2)NC[C@@H](C)Oc2ccccc2CCCNC1=O [Compound 1099]
≤ 500 nM	C[C@@H]1CN[C@@H](C2CC2)C(=O)N(C)[C@H](C)C(=O)N[C@H](Cc2ccc(Cl)cc2)C(=O)NCCCc2cc(F)c(F)cc2O1 [Compound 951]
≤ 100 nM	CC[C@H](C)[C@@H]1NC[C@@H](C)Oc2cccnc2CCCNC(=O)[C@@H](Cc2ccccc2)NC(=O)[C@@H](C)N(C)C1=O [Compound 1030]
≤ 1 nM	CC1CNC(C2CC2)C(=O)N(C)C(C)C(=O)NC(CC2CCCC2)C(=O)NCCCC2CCCCC2O1 (mixture of isomers) [Compound 1114]

Ki	SMILES
≤ 100 nM	C[C@@H]1C(=O)N[C@H](Cc2ccccc2)C(=O)NCCCc2ccncc2OCCN[C@@H](C2CC2)C(=O)N1C [Compound 1031]
≤ 100 nM	CC(C)CC1NC(=O)C(C)N(C)C(=O)C(C2CC2)NCCOc2cccc(F)c2CCCNC1=O (stereo not shown) [Compound 1111]
≤ 500 nM	CC(C)C[C@H]1NC(=O)[C@@H](C)N(C)C(=O)[C@H](C2CC2)NC[C@@H](C)Oc2cccnc2CC[C@H](C)NC1=O [Compound 1088]
≤ 100 nM	CC(=O)Oc1c(Br)cc(C[C@H]2NC(=O)[C@@H](C)N(C)C(=O)[C@H](C3CC3)NC[C@@H](C)Oc3ccccc3CCCNC2=O)cc1Br [Compound 1066]
≤ 100 nM	C[C@@H]1CN[C@@H](C2CC2)C(=O)N(C)[C@H](C)C(=O)N[C@H](Cc2c(F)c(F)c(F)c(F)c2F)C(=O)NCCCc2ccccc2O1 [Compound 1042]
≤ 100 nM	C[C@@H]1CN[C@@H](C2CC2)C(=O)N(C)[C@H](C)C(=O)N[C@H](CC2CCCCC2)C(=O)NCCCc2ccccc2O1 [Compound 1045]
≤ 500 nM	C[C@@H]1CN[C@@H](C2CC2)C(=O)N(C)[C@H](C)C(=O)N[C@H](Cc2ccc(F)cc2)C(=O)NCCCc2c(F)cccc2O1 [Compound 937]
≤ 100 nM	C[C@@H]1CN[C@@H](C2CC2)C(=O)N(C)[C@H](C)C(=O)N[C@H](Cc2ccc(Cl)cc2)C(=O)NCCCc2cccc(F)c2O1 [Compound 936]
≤ 500 nM	CC(C)C[C@H]1NC(=O)[C@@H](C)N(C)C(=O)[C@H](C2CC2)NC[C@@H](C)Oc2c(Cl)cccc2CCCNC1=O [Compound 1006]
≤ 100 nM	CC[C@H](C)[C@@H]1NC[C@@H](C)Oc2ccccc2CCCNC(=O)[C@@H](Cc2ccc(Cl)cc2)NC(=O)[C@@H](C)N(C)C1=O [Compound 878]
≤ 500 nM	CC(C)[C@@H]1NC[C@@H](C)Oc2ccccc2CCCNC(=O)[C@@H](Cc2ccccc2)NC(=O)[C@@H](C)N(C)C1=O [Compound 871]
≤ 500 nM	CC[C@H](C)[C@@H]1NC[C@@H](C)Oc2cccnc2CCCNC(=O)[C@@H](CC(C)C)NC(=O)[C@@H](C)N(C)C1=O [Compound 1000]
≤ 500 nM	CC[C@H](C)[C@@H]1NCCOc2cccnc2CCCNC(=O)[C@@H](CC(C)C)NC(=O)[C@@H](C)N(C)C1=O [Compound 987]
≤ 100 nM	C[C@@H]1CN[C@@H](C2CC2)C(=O)N(C)[C@H](C)C(=O)N[C@H](Cc2ccc(C(F)(F)F)cc2)C(=O)NCCCc2ccccc2O1 [Compound 1038]
≤ 100 nM	C[C@@H]1CN[C@@H](C2CC2)C(=O)N(C)[C@H](C)C(=O)N[C@H](Cc2ccc(F)c(F)c2)C(=O)NCCCc2ccccc2O1 [Compound 1040]
≤ 500 nM	CC(C)[C@@H]1NC[C@@H](C)Oc2ccccc2CCCNC(=O)[C@@H](Cc2ccc(F)cc2)NC(=O)[C@@H](C)N(C)C1=O [Compound 857]
≤ 10 nM	C[C@@H]1C(=O)N[C@H](Cc2ccccc2Cl)C(=O)NCCCc2ccccc2OCCN[C@@H](C2CC2)C(=O)N1C [Compound 872]
≤ 100 nM	C[C@@H]1CN[C@@H](C2CC2)C(=O)N(C)[C@H](C)C(=O)N[C@H](C2CCCCC2)C(=O)NCCCc2ccccc2O1 [Compound 1046]
≤ 500 nM	C[C@@H]1CN[C@@H](C2CC2)C(=O)N(C)[C@H](C)C(=O)N[C@H](Cc2ccc(F)cc2)C(=O)NCCC(C)(C)c2ccccc2O1 [Compound 1071]
≤ 10 nM	Cc1ccc(C[C@H]2NC(=O)[C@@H](C)N(C)C(=O)[C@H](C3CC3)NCCOc3ccccc3CCCNC2=O)cc1 [Compound 860]
≤ 100 nM	C[C@@H]1C(=O)N[C@H](Cc2ccc(F)cc2)C(=O)NCCCc2cccc3c2O[C@@H](CC3)CN[C@@H](C2CC2)C(=O)N1C [Compound 1016]
≤ 500 nM	C[C@@H]1CN[C@@H](C2CC2)C(=O)N(C)[C@H](C)C(=O)N[C@H](Cc2ccncc2)C(=O)NCCCc2ccccc2O1 [Compound 977]
≤ 100 nM	C[C@@H]1CN[C@@H](C2CC2)C(=O)N(C)[C@H](C)C(=O)N[C@H]([C@@H](C)c2ccc(F)cc2)C(=O)NCCCc2ccccc2O1 [Compound 1034]
≤ 10 nM	CC[C@H](C)[C@@H]1NC[C@@H](C)Oc2cccnc2CCCNC(=O)[C@@H](Cc2ccc(F)cc2)NC(=O)[C@@H](C)N(C)C1=O [Compound 1029]

SMILES	Ki
CC[C@H](C)[C@@H]1NC[C@@H](C)Oc2c(F)cccc2CCCNC(=O)[C@@H](Cc2ccc(O)cc2)NC(=O)[C@@H](C)N(C)C1=O [Compound 994]	≤ 100 nM
CC[C@H](C)[C@@H]1NC[C@@H](C)Oc2ccccc2CCCNC(=O)[C@@H](Cc2ccc(O)cc2)NC(=O)[C@@H](C)N(C)C1=O [Compound 993]	≤ 100 nM
CC1C(=O)NC(Cc2ccc(O)cc2)C(=O)NCCCc2ccc(F)cc2OCCNC(C2CCCCC2)C(=O)N1C (stereo not shown) [Compound 1113]	≤ 1 nM
C[C@@H]1C(=O)N[C@H](Cc2ccc(O)cc2)C(=O)NCCCc2cccc3c2OC(CN[C@@H](C2CC2)C(=O)N1C)C3 (stereo partly shown) [Compound 1025]	≤ 500 nM
CC1CNC(C2CCCCC2)C(=O)N(C)C(C)C(=O)NC(Cc2ccc(O)cc2)C(=O)NCCCc2ccccc2O1 (stereo not shown) [Compound 1108]	≤ 1 nM
C[C@@H]1CN[C@@H](C2CC2)C(=O)N(C)[C@H](C)C(=O)N[C@H](Cc2cc(Br)c(O)c(Br)c2)C(=O)NCCCc2ccccc2O1 [Compound 1053]	≤ 100 nM
C[C@@H]1CN[C@@H](C2CC2)C(=O)N(C)[C@H](C)C(=O)N[C@H](Cc2ccc(O)cc2)C(=O)NCCCc2cccc(F)c2O1 [Compound 991]	≤ 100 nM
C[C@@H]1CN[C@@H](C2CC2)C(=O)N(C)[C@H](C)C(=O)N[C@H](Cc2ccc(O)c(F)c2)C(=O)NCCCc2ccccc2O1 [Compound 1104]	≤ 100 nM
